From PubChem BioAssay (NCI)
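Briefly, cells in 96-well plates were exposed to five compound concentrations for 48 h, and endpoints were estimated by linear interpolation. Abbreviation: GI50, concentration required for 50% inhibition of growth. TGI: total growth inhibition.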

How the values were obtained:
Test in all cases: inhibition of tumour cell growth, NCI panel, 48 h
[1] = tested on: CCRF-CEM leukemia
[2] = tested on: DMS 114 small cell lung
[3] = tested on: EKVX NSCLC
[4] = tested on: HCC-2998 colon
[5] = tested on: HCT-15 colon
[6] = tested on: HOP-18 NSCLC
[7] = tested on: HT29 colon
[8] = tested on: LXFL 529 NSCLC
[9] = tested on: MCF7 breast
[10] = tested on: MDA-MB-231 breast
[11] = tested on: NCI-H522 lung
[12] = tested on: OVCAR-3 ovarian
[13] = tested on: OVCAR-4 ovarian
[14] = tested on: PC-3 prostate
[15] = tested on: RXF 393 renal
[16] = tested on: SNB-78 CNS
[17] = tested on: TK-10 renal
[18] = tested on: U251 CNS

O=C1C=CC=C[C@@H]2C(C3OCCO3)CC[C@H]12.[C-]#[O+].[C-]#[O+].[C-]#[O+].[Fe] (stereo partly specified)
GI50 [1]: 24.4 µM | TGI [1]: > 89.8 µM | GI50 [2]: 20.1 µM | TGI [2]: 45.2 µM | GI50 [3]: > 100 µM | TGI [3]: > 100 µM | GI50 [4]: > 76.6 µM | TGI [4]: > 100 µM | GI50 [5]: 55.7 µM | TGI [5]: > 95.4 µM | GI50 [6]: > 52.8 µM | TGI [6]: > 85.1 µM | GI50 [7]: 42.6 µM | TGI [7]: > 100 µM | GI50 [8]: 15.6 µM | TGI [8]: 29.4 µM | GI50 [9]: 37.3 µM | TGI [9]: > 100 µM | GI50 [10]: > 100 µM | TGI [10]: > 100 µM | GI50 [11]: 29 µM | TGI [11]: 46 µM | GI50 [12]: 40.6 µM | TGI [12]: > 100 µM | GI50 [13]: > 47.9 µM | TGI [13]: > 71.9 µM | GI50 [14]: 98.9 µM | TGI [14]: > 100 µM | GI50 [15]: 23.4 µM | TGI [15]: 67 µM | GI50 [16]: 22.8 µM | TGI [16]: 66 µM | GI50 [17]: > 100 µM | TGI [17]: > 100 µM | GI50 [18]: 44.7 µM | TGI [18]: > 82.5 µM
